According to ChEMBL document CHEMBL3885881, “DrugMatrix”:

Species: Rattus norvegicus
Test: DrugMatrix - Regimen: Daily Repeat
Format: toxicity, organism-based, Sprague-Dawley
Parameters: regimen Daily Repeat, gender Male, age 6-8 weeks
Details: in vivo, po, route oral GAVAGE, vehicle .5 % CMC; for ABSOLUTE BASOPHIL / ABSOLUTE EOSINOPHIL / ABSOLUTE LYMPHOCYTE / ABSOLUTE MONOCYTE / ABSOLUTE SEGMENTED NEUTROPHIL / BASOPHIL / EOSINOPHIL / ERYTHROCYTE COUNT / HEMATOCRIT / HEMOGLOBIN / LEUKOCYTE COUNT / LYMPHOCYTE / MEAN CORPUSCULAR HEMOGLOBIN / MEAN CORPUSCULAR HEMOGLOBIN CONCENTRATION / MEAN CORPUSCULAR VOLUME / MONOCYTE / NEUTROPHIL / NUCLEATED RED BLOOD CELLS / PLATELET COUNT: tissue Blood; for ALANINE AMINOTRANSFERASE / ALBUMIN / ALKALINE PHOSPHATASE / ASPARTATE AMINOTRANSFERASE / BLOOD UREA NITROGEN / CARBON DIOXIDE / CHLORIDE / CHOLESTEROL / CREATINE PHOSPHOKINASE / CREATININE / GLUCOSE / LACTATE DEHYDROGENASE / LIPASE / PHOSPHORUS / POTASSIUM / SODIUM / TOTAL BILIRUBIN / TOTAL PROTEIN / URIC ACID: tissue Plasma
[1] = 0 mg/kg, 72 h, dose level Control, time 3 day
[2] = 0 mg/kg, 120 h, dose level Control, time 5 day
[3] = 30 mg/kg, 72 h, dose level Low, time 3 day

CCOc1cc(N)c(Cl)cc1C(=O)NCC1CN(Cc2ccc(F)cc2)CCO1 (centres undefined) [MOSAPRIDE]
ABSOLUTE BASOPHIL [1]: 0 CELLS/uL | ABSOLUTE EOSINOPHIL [1]: 171.33 CELLS/uL | ABSOLUTE LYMPHOCYTE [1]: 13776.5 CELLS/uL | ABSOLUTE MONOCYTE [1]: 180.83 CELLS/uL | ABSOLUTE SEGMENTED NEUTROPHIL [1]: 1121.33 CELLS/uL | BASOPHIL [1]: 0% | EOSINOPHIL [1]: 1% | ERYTHROCYTE COUNT [1]: 5.56 x10E6/uL | HEMATOCRIT [1]: 34.75% | HEMOGLOBIN [1]: 13.68 G/DL | LEUKOCYTE COUNT [1]: 15.25 x10E3/uL | LYMPHOCYTE [1]: 90.17% | MEAN CORPUSCULAR HEMOGLOBIN [1]: 24.6 pg | MEAN CORPUSCULAR HEMOGLOBIN CONCENTRATION [1]: 39.4 G/DL | MEAN CORPUSCULAR VOLUME [1]: 62.48 fL | MONOCYTE [1]: 1.17% | NEUTROPHIL [1]: 7.67% | NUCLEATED RED BLOOD CELLS [1]: 0 /100WBC | PLATELET COUNT [1]: 1342 x10E3/uL | ALANINE AMINOTRANSFERASE [1]: 49.67 u/L | ALBUMIN [1]: 4.15 G/DL | ALKALINE PHOSPHATASE [1]: 346.83 u/L | ASPARTATE AMINOTRANSFERASE [1]: 108.17 u/L | BLOOD UREA NITROGEN [1]: 17.33 mg/dL | CARBON DIOXIDE [1]: 25 mmol/L | CHLORIDE [1]: 100.83 MEQ/L | CHOLESTEROL [1]: 66.83 mg/dL | CREATINE PHOSPHOKINASE [1]: 788 u/L | CREATININE [1]: 0.18 mg/dL | GLUCOSE [1]: 151.67 mg/dL | LACTATE DEHYDROGENASE [1]: 982.5 u/L | LIPASE [1]: 10.33 u/L | PHOSPHORUS [1]: 11.23 mg/dL | POTASSIUM [1]: 6.37 MEQ/L | SODIUM [1]: 141.02 MEQ/L | TOTAL BILIRUBIN [1]: 0.18 mg/dL | TOTAL PROTEIN [1]: 5.9 G/DL | URIC ACID [1]: 1.8 mg/dL | ABSOLUTE BASOPHIL [2]: 0 CELLS/uL | ABSOLUTE EOSINOPHIL [2]: 69 CELLS/uL | ABSOLUTE LYMPHOCYTE [2]: 13632.83 CELLS/uL | ABSOLUTE MONOCYTE [2]: 139.83 CELLS/uL | ABSOLUTE SEGMENTED NEUTROPHIL [2]: 1225 CELLS/uL | BASOPHIL [2]: 0% | EOSINOPHIL [2]: 0.33% | ERYTHROCYTE COUNT [2]: 5.52 x10E6/uL | HEMATOCRIT [2]: 33.98% | HEMOGLOBIN [2]: 13.22 G/DL | LEUKOCYTE COUNT [2]: 15.07 x10E3/uL | LYMPHOCYTE [2]: 90.83% | MEAN CORPUSCULAR HEMOGLOBIN [2]: 23.95 pg | MEAN CORPUSCULAR HEMOGLOBIN CONCENTRATION [2]: 38.9 G/DL | MEAN CORPUSCULAR VOLUME [2]: 61.53 fL | MONOCYTE [2]: 0.83% | NEUTROPHIL [2]: 8% | NUCLEATED RED BLOOD CELLS [2]: 0 /100WBC | PLATELET COUNT [2]: 1196 x10E3/uL | ALANINE AMINOTRANSFERASE [2]: 49.17 u/L | ALBUMIN [2]: 4.2 G/DL | ALKALINE PHOSPHATASE [2]: 352.33 u/L | ASPARTATE AMINOTRANSFERASE [2]: 89.67 u/L | BLOOD UREA NITROGEN [2]: 18 mg/dL | CARBON DIOXIDE [2]: 27.67 mmol/L | CHLORIDE [2]: 101 MEQ/L | CHOLESTEROL [2]: 72.83 mg/dL | CREATINE PHOSPHOKINASE [2]: 417.5 u/L | CREATININE [2]: 0.18 mg/dL | GLUCOSE [2]: 150.5 mg/dL | LACTATE DEHYDROGENASE [2]: 517.33 u/L | LIPASE [2]: 9 u/L | PHOSPHORUS [2]: 11.87 mg/dL | POTASSIUM [2]: 6.57 MEQ/L | SODIUM [2]: 143.62 MEQ/L | TOTAL BILIRUBIN [2]: 0.2 mg/dL | TOTAL PROTEIN [2]: 6.08 G/DL | URIC ACID [2]: 1.45 mg/dL | ABSOLUTE BASOPHIL [3]: 0 CELLS/uL | ABSOLUTE EOSINOPHIL [3]: 0 CELLS/uL | ABSOLUTE LYMPHOCYTE [3]: 13493 CELLS/uL | ABSOLUTE MONOCYTE [3]: 253.67 CELLS/uL | ABSOLUTE SEGMENTED NEUTROPHIL [3]: 1253.33 CELLS/uL | BASOPHIL [3]: 0% | EOSINOPHIL [3]: 0% | ERYTHROCYTE COUNT [3]: 5.62 x10E6/uL | HEMATOCRIT [3]: 34.97% | HEMOGLOBIN [3]: 13.6 G/DL | LEUKOCYTE COUNT [3]: 15 x10E3/uL | LYMPHOCYTE [3]: 90% | MEAN CORPUSCULAR HEMOGLOBIN [3]: 24.23 pg | MEAN CORPUSCULAR HEMOGLOBIN CONCENTRATION [3]: 38.9 G/DL | MEAN CORPUSCULAR VOLUME [3]: 62.3 fL | MONOCYTE [3]: 1.67% | NEUTROPHIL [3]: 8.33% | NUCLEATED RED BLOOD CELLS [3]: 0 /100WBC | PLATELET COUNT [3]: 1159.67 x10E3/uL | ALANINE AMINOTRANSFERASE [3]: 57.33 u/L | ALBUMIN [3]: 4.3 G/DL | ALKALINE PHOSPHATASE [3]: 338 u/L | ASPARTATE AMINOTRANSFERASE [3]: 95 u/L | BLOOD UREA NITROGEN [3]: 14.67 mg/dL | CARBON DIOXIDE [3]: 26.33 mmol/L | CHLORIDE [3]: 102 MEQ/L | CHOLESTEROL [3]: 74 mg/dL | CREATINE PHOSPHOKINASE [3]: 533.33 u/L | CREATININE [3]: 0.2 mg/dL | GLUCOSE [3]: 136.67 mg/dL | LACTATE DEHYDROGENASE [3]: 408 u/L | LIPASE [3]: 10.67 u/L | PHOSPHORUS [3]: 12.77 mg/dL | POTASSIUM [3]: 6.39 MEQ/L | SODIUM [3]: 143.7 MEQ/L | TOTAL BILIRUBIN [3]: 0.2 mg/dL | TOTAL PROTEIN [3]: 6 G/DL | URIC ACID [3]: 1.47 mg/dL
